Where “and” joins values, the source holds several entries; their conditions need not be identical. Equal entries are not always repeated.
Experiments:
B16 melanoma cells = experiment: Intracellular uptake of gadolinium complexes (ICP-MS); format: cell-based, mouse; conditions: 24-h incubation; for intracellular uptake of gadolinium complex: B16 melanoma cells, 10 μM
Method: (§1) Cell culture. B16 melanoma cells (mouse) and MH3924A Morris hepatoma cells (rat) were obtained from the German Cancer Research Center (DKFZ) tumor bank and grown at 37° C. as stock cultures in RPMI 1640 supplemented with 10% fetal calf serum and 1% glutamine as standard medium under a 5% CO2 atmosphere (all components: Pan Biotech GmbH, Aidenbach, Germany). For contrast agent uptake studies 10^6 cells were inoculated into 25 cm^2 culture flasks (BD Biosciences, Bedford, USA) and grown for 24 h in 10 mL of the standard culture medium. Cells were then incubated for an additional 24 h (1 h for temperature dependence studies) with fresh medium containing 0, 1, 2.5, 5 or 10 μM of the selected gadolinium complex (three replicate flasks for each incubation). Afterwards the medium was removed, cells were trypsinated, washed twice, resuspended in culture medium and counted (typical yields: 3.5-6 million cells). For comparison 2.5×10^5 human melanocytes (Promo Cell, Heidelberg, Germany) were incubated for 24 h with melanocyte growth medium (Promo Cell, Heidelberg, Germany) containing 0, 1, 2.5, 5 or 10 μM of the selected gadolinium complex (two replicate flasks for each incubation). The work up procedure was as described above typically yielding 2.5×10^5 cells. Cultured human hepatocytes (Cytonet GmbH, Weinheim, Germany) embedded in a collagen matrix in a 12 well microtiter plate, with 6×10^5 viable cells per well were incubated for 24 h in hepatocyte growth medium (Cytonet GmbH, Weinheim, Germany) containing the same concentration series of selected gadolinium complexes. Afterwards the medium was removed, cells were separated using collagenase (Roche Diagnostics, Mannheim, Germany). After digestion the cells were washed twice with PBS, resuspended in culture medium and counted (typical yields: 6×10^5 cells per tube). The intracellular gadolinium content was determined by ICP-MS as described below.
(§2) ICP-MS. Samples containing the above mentioned number of harvested cells were digested with 50% concentrated HNO3 (Superselect; Merck, Darmstadt, Germany) under microwave heating with a Mars 5 apparatus (CEM GmbH, Kamp-Lintfort, Germany). To each sample 100 μL of an aqueous solution of rhodium chloride (1 μg/mL) were added so that Rh-103 could be used as an internal quantification standard. Gd-160 measurements were performed with the ICP-MS instrument mentioned above. The gadolinium concentrations were determined using standard curves created prior to cell analyses. For each uptake incubation condition triplicate cell samples were analyzed, and Gd content for each sample was recorded as the mean of two MS determinations.
(§3) Intracellular Uptake of Gadolinium Complexes. B16 melanoma and MH3924A hepatoma cells as well as human melanocytes and hepatocytes were incubated for 24 h in the presence of the gadolinium complexes shown in FIG. 1, using concentrations in the range of 1-10 μM. Incubations with the unsubstituted [Gd(DTPA)(H2O)]^2−complex (Magnevist®) served as controls. Following cell harvest and hydrolysis, inductively coupled plasma mass spectrometry (ICP-MS) with direct detection of gadolinium was used to quantitate complex uptake (triplicate cultures for each incubation).
(§4) Cell Uptake Studies. A493 (human kidney), B16 melanoma cells (mouse), HeLa (human cervix), MCF-7 (human breats), MH3924A (Morris hepatoma) cells (rat) and 3T3 NIH (mouse fibroblasts) were obtained from the DKFZ tumor cell collection. 3×10^6 cells of each cell type were grown for 24 hours in culture flasks. Afterwards they were incubated for 1 hour in 10 mL culture media containing 0, 10, 50 and 100 μM of Gd-2.2. Gd-3.2 or Gd-4.2. Afterwards the medium was removed, the cells were trypsinated, washed twice, resuspended in culture medium and counted. The gadolinium uptake was determined in triplicate. […] cells were incubated with 0, 1, 2.5, 5 and 10 μM of the Gd-1.2. and Gd-5.2. for 24 h. […]

[1] = test system: MH3924A Morris hepatoma cells; experiment: as above; format: cell-based, rat; conditions: MH3924A cells; for intracellular uptake of gadolinium complex: 24-h incubation
Method: as §1, §2, §3, §4

[2] = test system: subcutaneous MH3924A tumor; experiment: MRI of ACI rats bearing a subcutaneous MH3924A tumor; format: in vivo, rat; conditions: 0.1 mmol/kg i.v., 2.35 T
Method: Animal models. For in vivo tumor studies 2×10^6 MH3924A tumor cells were injected subcutaneously into the right thigh of male ACI rats (Charles River, Sulzfeld, Germany) weighing 220 to 260 g. All animal experiments were performed in compliance with the German Animal Protection Laws (Permission 35-9185.81/G-7-03, Reg.-Praesidium, Karlsruhe, Germany).
MRI. At 25 days after inoculation, when tumors had reached a diameter of ca. 10-15 mm, the MR imaging experiments were initiated. ACI rats were anesthetized by intravenous injection of ketamin (Ketanest®, 0.1 mg/g body wt.; Parke-Davis, Berlin, Germany). Then a dose of 0.1 mmol/kg Magnevist® or Gadovist® (Schering, Berlin, Germany) or one of the synthesized agents Gd-3.1., Gd-5.1. or Gd-6.1. was injected intravenously into a lateral tail vein. For one experiment a higher dose (0.36 mmol/kg) of Magnevist® was used. Individual rats were examined by MRI at 1 h and 24 h post Gd, in the case of Magnevist® also at ca. 15 min post Gd. Proton imaging studies were performed at 2.35 T (100.3 MHz) with a Biospec 24/40 instrument (Bruker BioSpin MRI, Ettlingen, Germany). […] Two transaxial multislice imaging protocols were applied with a field of view of 70×70 mm, 128 time-domain data points, 96 phase-encoding steps, and 16 slices of 2 mm thickness. A multi-spin-echo sequence was used for proton-density and T2-weighted images (repetition time TR=2 s, 12 echoes with echo times TE of 8, 16, 24, . . . 96 ms, number of averages=1), and a spoiled gradient-echo sequence was used for T1-weighted imaging (TR=212 ms, TE=5 ms, flip angle=60°, number of averages=3). The data were Fourier transformed to give a 128×128 image matrix with 0.55 mm pixel resolution. Analogous T1-weighted images with coronal slices were acquired with a field of view of 80×80 mm and 3-mm slice thickness.
Imaging viewing, ROI analysis and export of TIFF files was performed with the freeware MRIcro from Chris Rorden (http://people.cas.sc.edu/rorden/mricro.html).

Structure (SMILES)	fold increase in intracellular accumulation versus complex of ligand 2.1 (B16 melanoma cells; cell line not stated)	intracellular uptake of gadolinium complex (B16 melanoma cells)	intracellular uptake of gadolinium complex ([1]; 10 μM)	contrast ratio tumor vs. muscle tissue, T1 weighting ([2]; 1 h post Gd)	contrast ratio tumor vs. muscle tissue, T1 weighting ([2]; 24 h post Gd)	observed factor of decrease in uptake at 4° C. vs. 37° C. ([1]; 1 h (FIG. 3A))	uptake over 1 h at 4° C. ([1]; 1 h, 4° C., 10 μM)	uptake over 1 h at 37° C. ([1]; 1 h, 37° C., 10 μM)
CCN(CC)CCNC(=O)CN(CCN(CCN(CC(=O)[O-])CC(=O)N(CCN)CCN)CC(=O)[O-])CC(=O)[O-].[Gd+3] [Gd-3.1]	2.87	0.082±0.004 fmol/cell	0.175±0.0013 fmol/cell and 0.175 fmol/cell	1.22	1.11			
NCCN(CCN)C(=O)CN(CCN(CCN(CC(=O)[O-])CC(=O)N(CCN)CCN)CC(=O)[O-])CC(=O)[O-].[Gd+3] [Gd-5.1]		0.027±0.002 fmol/cell	0.053±0.005 fmol/cell	1.11	1.08	~6.5	0.00064±0.00004 fmol/cell	0.008±0.00041 fmol/cell
NCCCCN(CCCN)C(=O)CN(CCN(CCN(CC(=O)[O-])CC(=O)N(CCCN)CCCCN)CC(=O)[O-])CC(=O)[O-].[Gd+3] [Gd-6.1]			0.108 fmol/cell	1.49	1.21			
